We go through 12 molecules from ChEMBL document CHEMBL1134035, “Novel 5,5-disubstitutedpyrimidine-2,4,6-triones as selective MMP inhibitors” (Bioorg Med Chem Lett, 2001).

Assay [1] deals with 72 kDa type IV collagenase (Homo sapiens, UniProt P08253). The experiment in a line: Inhibition of Gelatinase A, matrix metalloprotease-2.
Assay [2] addresses Matrix metalloproteinase-9 (Homo sapiens, UniProt P14780). Nature of the assay: Inhibition of Gelatinase B, matrix metalloprotease-9.
For assay [3], the target named is T1, Matrilysin (Homo sapiens, UniProt P09237).
T1 sequence (P09237 whole entry): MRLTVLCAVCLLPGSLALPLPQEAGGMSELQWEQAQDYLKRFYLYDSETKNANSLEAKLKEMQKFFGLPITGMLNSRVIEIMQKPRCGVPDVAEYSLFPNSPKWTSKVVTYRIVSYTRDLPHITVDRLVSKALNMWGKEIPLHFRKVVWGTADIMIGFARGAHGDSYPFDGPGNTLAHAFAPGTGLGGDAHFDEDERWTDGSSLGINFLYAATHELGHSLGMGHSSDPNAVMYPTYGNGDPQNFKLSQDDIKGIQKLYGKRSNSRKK
Nature of the assay: Inhibition of matrilysin, Matrix metalloprotease-7.

Assay [4] addresses T2, Interstitial collagenase (Homo sapiens, UniProt P03956).
T2 sequence (P03956 whole entry): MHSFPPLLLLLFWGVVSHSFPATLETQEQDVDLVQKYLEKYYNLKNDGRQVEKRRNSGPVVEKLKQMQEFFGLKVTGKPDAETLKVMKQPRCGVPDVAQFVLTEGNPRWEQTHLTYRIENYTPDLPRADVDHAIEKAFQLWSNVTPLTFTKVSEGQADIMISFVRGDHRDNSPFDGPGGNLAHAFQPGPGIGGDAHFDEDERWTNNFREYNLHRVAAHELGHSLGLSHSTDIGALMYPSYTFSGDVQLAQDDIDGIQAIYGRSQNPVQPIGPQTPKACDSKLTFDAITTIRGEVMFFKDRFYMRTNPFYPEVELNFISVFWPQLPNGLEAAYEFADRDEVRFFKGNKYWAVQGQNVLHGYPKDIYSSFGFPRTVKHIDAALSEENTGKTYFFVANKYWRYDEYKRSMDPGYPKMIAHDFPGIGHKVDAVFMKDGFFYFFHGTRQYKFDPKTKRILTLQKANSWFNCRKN
The experiment in a line: Inhibition of Matrix metalloprotease-1.

Assay [5] deals with Stromelysin-1 (Homo sapiens, UniProt P08254). The experiment in a line: Inhibition of Stromelysin, matrix metalloprotease-3.
Sequence of Stromelysin-1 (P08254 whole entry): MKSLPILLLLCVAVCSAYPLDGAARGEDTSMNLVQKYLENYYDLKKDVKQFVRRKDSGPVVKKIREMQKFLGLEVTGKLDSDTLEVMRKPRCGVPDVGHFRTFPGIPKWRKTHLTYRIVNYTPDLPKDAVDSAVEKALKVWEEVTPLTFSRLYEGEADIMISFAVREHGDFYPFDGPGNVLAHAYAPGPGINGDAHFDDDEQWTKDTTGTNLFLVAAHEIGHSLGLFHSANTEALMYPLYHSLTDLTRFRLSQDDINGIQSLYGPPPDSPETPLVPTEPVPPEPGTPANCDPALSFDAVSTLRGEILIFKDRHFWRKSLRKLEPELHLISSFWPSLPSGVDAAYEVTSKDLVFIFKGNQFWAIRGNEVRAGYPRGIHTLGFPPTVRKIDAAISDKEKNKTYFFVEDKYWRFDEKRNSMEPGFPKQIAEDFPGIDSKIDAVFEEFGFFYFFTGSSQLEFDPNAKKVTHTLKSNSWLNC
The target in assay [6] is Neutrophil collagenase (Homo sapiens, UniProt P22894). Nature of the assay: Inhibition of human neutrophil collagenase-I, Matrix metalloprotease-8.
Sequence of Neutrophil collagenase (P22894 whole entry): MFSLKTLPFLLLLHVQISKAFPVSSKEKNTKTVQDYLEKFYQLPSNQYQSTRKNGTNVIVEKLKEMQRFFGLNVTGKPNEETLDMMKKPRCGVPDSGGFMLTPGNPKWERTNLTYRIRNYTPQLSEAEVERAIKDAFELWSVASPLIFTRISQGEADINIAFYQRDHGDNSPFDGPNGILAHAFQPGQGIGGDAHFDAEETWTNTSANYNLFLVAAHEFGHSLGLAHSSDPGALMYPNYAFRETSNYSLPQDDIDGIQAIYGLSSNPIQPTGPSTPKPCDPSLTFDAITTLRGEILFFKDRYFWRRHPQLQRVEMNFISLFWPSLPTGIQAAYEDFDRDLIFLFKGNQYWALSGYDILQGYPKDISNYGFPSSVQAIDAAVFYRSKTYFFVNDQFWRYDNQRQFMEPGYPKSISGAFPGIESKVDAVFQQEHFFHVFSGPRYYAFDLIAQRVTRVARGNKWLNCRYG

Structures are written as SMILES. A value given as a limit tells only on which side of the number the result lay.

Sequence of 72 kDa type IV collagenase (P08253 whole entry): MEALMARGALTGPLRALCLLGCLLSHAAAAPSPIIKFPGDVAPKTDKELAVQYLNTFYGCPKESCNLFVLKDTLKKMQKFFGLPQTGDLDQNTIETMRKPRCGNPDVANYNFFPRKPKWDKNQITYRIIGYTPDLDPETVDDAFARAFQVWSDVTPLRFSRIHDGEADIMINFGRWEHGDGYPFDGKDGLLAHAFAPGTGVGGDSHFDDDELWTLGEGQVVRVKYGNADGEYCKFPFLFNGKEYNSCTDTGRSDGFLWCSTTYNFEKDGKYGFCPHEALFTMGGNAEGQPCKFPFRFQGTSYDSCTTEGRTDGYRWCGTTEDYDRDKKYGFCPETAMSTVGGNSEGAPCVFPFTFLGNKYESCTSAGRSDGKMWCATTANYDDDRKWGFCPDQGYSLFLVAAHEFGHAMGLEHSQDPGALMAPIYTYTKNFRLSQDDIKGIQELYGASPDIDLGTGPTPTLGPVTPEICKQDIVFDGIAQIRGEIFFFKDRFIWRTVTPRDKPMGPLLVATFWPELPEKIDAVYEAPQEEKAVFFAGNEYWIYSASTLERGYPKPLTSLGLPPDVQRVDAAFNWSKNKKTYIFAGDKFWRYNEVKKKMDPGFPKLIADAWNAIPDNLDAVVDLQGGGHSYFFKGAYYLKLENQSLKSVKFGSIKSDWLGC
Sequence of Matrix metalloproteinase-9 (P14780 whole entry): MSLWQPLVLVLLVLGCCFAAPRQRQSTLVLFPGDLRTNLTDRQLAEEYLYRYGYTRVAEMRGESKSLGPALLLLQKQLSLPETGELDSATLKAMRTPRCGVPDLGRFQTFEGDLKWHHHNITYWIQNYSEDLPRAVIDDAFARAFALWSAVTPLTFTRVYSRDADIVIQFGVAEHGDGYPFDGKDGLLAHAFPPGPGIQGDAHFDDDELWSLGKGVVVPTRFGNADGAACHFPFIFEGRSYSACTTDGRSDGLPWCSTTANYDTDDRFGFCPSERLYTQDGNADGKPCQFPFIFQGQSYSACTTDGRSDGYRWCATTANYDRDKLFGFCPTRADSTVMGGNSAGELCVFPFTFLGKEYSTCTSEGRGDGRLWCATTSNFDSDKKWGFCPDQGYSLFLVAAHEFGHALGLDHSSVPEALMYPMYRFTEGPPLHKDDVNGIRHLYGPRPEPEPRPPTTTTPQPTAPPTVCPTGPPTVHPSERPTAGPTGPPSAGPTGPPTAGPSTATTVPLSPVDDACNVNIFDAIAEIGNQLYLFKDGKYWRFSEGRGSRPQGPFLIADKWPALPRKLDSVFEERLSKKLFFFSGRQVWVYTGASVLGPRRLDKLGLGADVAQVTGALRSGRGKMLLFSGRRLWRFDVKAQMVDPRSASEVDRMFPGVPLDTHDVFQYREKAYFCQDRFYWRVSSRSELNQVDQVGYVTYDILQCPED

With `O=C1NC(=O)C(c2ccc(Oc3ccccc3)cc2)C(=O)N1`, the concentration for half-maximal inhibition (IC50) was 9000 nM in assay [1], 14000 nM in assay [2], greater than 50000 nM in assay [3] and greater than 2000 nM in assay [4].

For `CCCCCCC1(c2ccc(-c3ccccc3)cc2)C(=O)NC(=O)NC1=O`, the IC50 is 868 nM in assay [1], 863 nM in assay [2], greater than 50000 nM in assay [3] and greater than 2000 nM in assay [4].

Consider `O=C1NC(=O)C(CCO)(c2ccc(Oc3ccccc3)cc2)C(=O)N1`, for which the figures for the IC50 in assay [3] and in assay [4] were greater than 50000 nM and greater than 2000 nM, respectively.

For `CCCCCCC1(c2ccccc2)C(=O)NC(=O)NC1=O`, the half-maximal inhibitory concentration (IC50) in assay [1] is 1300 nM; in assay [2] it was 330 nM; in assay [3], greater than 50000 nM; in assay [4] it was greater than 2000 nM; in assay [5], 30000 nM.

`CCCCCCCCOc1ccc(CC2(C)C(=O)NC(=O)NC2=O)cc1`: the concentration for half-maximal inhibition (IC50) in assay [1] was 530 nM; in assay [2], 164 nM; in assay [3], greater than 50000 nM; in assay [4], greater than 2000 nM; in assay [5], 1000 nM.

`CCC1(c2ccc(-c3ccccc3)cc2)C(=O)NC(=O)NC1=O`: the half-inhibitory concentration (IC50) was 898 nM in assay [1]; 696 nM in assay [2]; greater than 50000 nM in assay [3]; greater than 2000 nM in assay [4]; 9000 nM in assay [5].

Consider `CCCCCCC1(c2ccc(Oc3ccccc3)cc2)C(=O)NC(=O)NC1=O`, for which the IC50 was 21 nM in assay [1]; 18 nM in assay [2]; 130 nM in assay [6]; greater than 50000 nM in assay [3]; greater than 2000 nM in assay [4]; 2000 nM in assay [5].

Take `CN1C(=O)NC(=O)C(C)(c2ccc(Oc3ccccc3)cc2)C1=O` (stereo not drawn): the half-maximal inhibitory concentration (IC50) in assay [1] was greater than 50000 nM; in assay [2] it was greater than 50000 nM; in assay [3], greater than 50000 nM; in assay [4] it was greater than 2000 nM.

As to `CC1(c2ccc(Oc3ccccc3)cc2)C(=O)NC(=O)NC1=O`, the IC50 in assay [1] was 81 nM; in assay [6] it was 81 nM; in assay [3], greater than 50000 nM; in assay [4], greater than 2000 nM; in assay [5], 2000 nM.

For `CCCCCCC1(c2ccc(-c3ccccc3)cc2)C(=O)NC(=S)NC1=O`, the half-inhibitory concentration (IC50) in assay [1] was 13000 nM; in assay [2] it was 12000 nM; in assay [3] it was greater than 50000 nM; in assay [4], greater than 2000 nM.

For the molecule `CC1(c2ccccc2)C(=O)NC(=O)NC1=O`, the IC50 is 50000 nM in assay [1], 11000 nM in assay [2], greater than 50000 nM in assay [3] and greater than 2000 nM in assay [4].

As for `O=C1NC(=O)C(COCc2ccccc2)(c2ccc(Oc3ccccc3)cc2)C(=O)N1`, the IC50 in assay [1] is 19 nM; in assay [2], 17 nM; in assay [3], greater than 50000 nM; in assay [4] it was greater than 2000 nM; in assay [5], 930 nM.
